“Also recorded” adds a separate entry of the source. Read-outs that look alike come from different tables or passages of the source. Blank lines part the entries; values can stand above or below the compound they belong to.
How the values were obtained:
Format in all cases: physicochemical
[1] = Thermogravimetric analysis (TGA); conditions: for TG weight loss: from 70° C., hydrochloride
Description: TGA analyses were performed using a TA Instruments TGA Q500 thermogravimetric analyzer. Each sample was analyzed on a platinum pan, heated under a nitrogen purge at a rate of 10° C./min, from room temperature to 250° C. or 300° C.
Thermo-Gravimetric Analyzer (TGA) analyses were performed using TGA Q500 thermogravimetric analyzer (TA Instruments). Each sample was analyzed on a platinum pan. The measurement condition is shown below: • Atmosphere: Nitrogen • Elevated temperature rate: 10° C./min • Temperature range: From room temperature to 250 or 300° C.

[2] = Dynamic vapor sorption (DVS) moisture sorption isotherm, Hiden IGA-sorp; conditions: for weight gain when humidity increased from 0% RH to 95% RH: 25° C., 0% RH up to 95% RH
Description: (§1) DVS moisture sorption isotherms were generated using a Hiden Analytical IGA-sorp moisture sorption analyzer. Samples were run as received without pre-analysis drying. Each sample was equilibrated between about 30 and 120 minutes at each relative humidity (RH) step. Temperature was fixed at about 25° C. and the relative humidity steps (0 to 95% RH) were in 5-10% increments. Sample sizes ranged from 3 to 30 mg. After DVS measurement, XRPD was measured in order to check the solid form. Dynamic Vapor sorption (DVS) moisture sorption isotherms were generated using IGA-sorp moisture sorption analyzer (Hiden Analytical). Sample measurements were run without drying before analyses. XRPD was measured in order to check any changes of the solid form after the moisture sorption/desorption. The measurement condition is shown below: • Time at each RH steps: From 30 to 120 minutes • Relative humidity steps: 5 or 10% steps • Temperature: 25° C.

[3] = Differential scanning calorimetry (DSC); conditions: sealed pan, 10° C./min
Description: DSC chart was obtained using a TA Instruments DSC Q1000 differential scanning calorimeter. Each sample was analyzed in a crimped pan with a pinhole, heated under a nitrogen purge at a rate of 10° C./min, from 10° C. to 250° C. or 300° C.
Differential Scanning Calorimeter (DSC) chart was obtained by DSC Q1000 differential scanning calorimeter (TA Instruments). Each sample was analyzed in a crimped pan with a pinhole. The measurement condition is shown below: • Atmosphere: Nitrogen • Elevated temperature rate: 10° C./min • Temperature range: From 10° C. to 250 or 300° C.
All DSC analyses were performed using TA Instruments Q100 differential scanning calorimeter. Lots 1-3 were analyzed in a sealed pan. Each sample was heated under a 50 mL/min nitrogen purge at a heating rate of 10° C./min, from a starting temperature of 25° C. up to a final temperature of 300° C. Sample size ranged from […].

[4] = Solubility of Compound 1 Tosylate in solvents
Description: Considering the formation of the genotoxic impurities with alcohol, water was selected as the solvent and acetone as the anti-solvent. The solubility in the water-acetone binary solvent system indicates the feasibility for crystallization in this solvent system. Further solubility was also measured to help define the operation conditions.

[5] = Temperature controlled XRPD (crystal form stability on heating); conditions: up to melting
Description: Temperature controlled XRPD was measured by the X'pert-MPD with an Anton Paar TCU 100 Temperature Control Unit. Sample was measured from 30° C. to 250° C. or 270° C. with 10° C. increments. Measurement conditions were as follows: range: 4-30°, step: 0.017°, time per step: 100 s.
FT-Raman, XRPD, DSC, TGA, and DVS instruments and techniques were similar to those in Example 3. Temperature controlled XRPD was measured by X'pert-Pro MIPD (Spectris) with TCU 100 Temperature Control Unit (Anton Paar). The temperature of the sampling stage was increased step by step as programmed and XRPD patterns of sample were measured at each step. The measurement condition is shown below: • Range angle: From 4 to 30° • Step size: 0.017° • Time per step: 100 s

[6] = Storage at 75% RH (saturated NaCl), solid form checked by Raman/XRPD; conditions: overnight / 1 day
Description: Fumaric acid salt Form FB has about 3.8% weight loss from low temperature with TGA measurement. From DVS result, there is about 5% weight gain at over 75% RH, so polymorphic form seems to be changed. […] Therefore, Form FA seems to be di-hydrate. Form FB seems to be mono-hydrate. The thermal behavior of Form FA is a little different from that of Form FB. Form FA generated the experiment described above using about 28 mg of fumaric acid and about 2 mL of THE seems to be easy to be dehydrated. It can be affected by vacuum dry. When Form FA and Form FB are placed under dry condition or heated, anhydrous form can be obtained. But they are quickly transformed to be hydrous form by obtaining water in the air.
It was confirmed that Form HC was reproducible even in the scale up study. […] The NMR spectrum shown indicated no presence of organic solvents.

[7] = XRPD before and after DVS measurement (moisture sorption/desorption)
Description: as §1

[8] = Polymorph study of Compound 1 Hydrochloride (solvent, slurry screening, scale up; FT-Raman/XRPD); conditions: on filtration/drying, humidity or room temperature
Description: FT-Raman analyses were performed by using MultiRAM (Bruker Optics). Each suspension or dry powder sample was measured from out of glass vial. The measurement condition is shown below: • Excitation wavelength: 1064 nm • Laser power: 500 mW • Wavenumber: 4 cm-1 • Sample scan: 128 times
X-ray Powder Diffraction (XRPD) spectra were obtained by X′ pert Pro MPD (Spectris). X-rays was generated with Cu Kα radiation. The powder samples were put on the reflection free sample plate. The XRPD patterns were analyzed by HighScorePlus. The measurement condition is shown below: • Range angle: From 4 to 30°, to 40° and to 65° (20) • Step size: 0.017° • Time per step: 100 s
Compound 1 Hydrochloride, Form HA (about 5 mg) was put into each small glass vial and various types of solvents were added until the sample was dissolved at about 90° C. or boiling point. Maximum volume of solvent was about 500 μL. After the solution and suspension was heated for a few hours, the heater was switched off and the sample was cooled. The vials were preserved at about 5° C. Crystals obtained in the vials were measured directly by FT-Raman. After solvent was evaporated by opening the cap of vial, crystals obtained were also measured directly by FT-Raman. Solids were then collected and evaluated by XRPD and thermal analysis as needed.
Compound 1 Hydrochloride, Form HA (about 10 mg) was put into each small glass vial and various types of organic solvents mixed with water were added. After each sample was suspended at room temperature for about 3 days, suspended solids in the vials were measured directly by FT-Raman. Furthermore, each sample was suspended at about 50° C. for about 3 days and these were measured directly by FT-Raman. Solids were then collected and evaluated by XRPD, thermal analysis and DVS as needed.
Compound 1 Hydrochloride, Form HA (about 100 mg) was put into a glass vial and about 1 mL of EtOH mixed with water (10:1) was added. […] It was analyzed by XRPD, thermal analysis, ^1H-NMR, elemental analysis and ion-chromatography.

[9] = Lot 1, recrystallized from water/acetone
[10] = Lot 2, recrystallized from water/acetone
[11] = Lot 3, recrystallized from water/acetone

Structure (SMILES): CNC[C@@H]1OCCn2nc3ccccc3c21.O=S(=O)(O)c1ccccc1 [Compound 1 Besylate, (S)-1-(3,4-dihydro-1H-[1,4]oxazino[4,3-b]indazol-1-yl)-N-methylmethanamine benzenesulfonate]
TGA weight loss (in words) [1]: no weight loss until melting
weight gain at 95% RH ([2]; about 25° C.): about 2%
hygroscopicity (in words) ([2]; listed as besylate, benzenesulfonate): less hygroscopicity; also recorded: low hygroscopicity

Structure (SMILES): CNC[C@@H]1OCCn2nc3ccccc3c21.O=C(O)/C=C/C(=O)O [Compound 1 Fumarate, (S)-1-(3,4-dihydro-1H-[1,4]oxazino[4,3-b]indazol-1-yl)-N-methylmethanamine fumarate]
hygroscopicity (in words) [2]: no hygroscopicity

Structure (SMILES): CNC[C@@H]1OCCn2nc3ccccc3c21.O=P(O)(O)O [Compound 1 Phosphate, (S)-1-(3,4-dihydro-1H-[1,4]oxazino[4,3-b]indazol-1-yl)-N-methylmethanamine phosphate]
TGA weight loss (in words) ([1]; listed as phosphate salt, phosphate): large amount of weight loss at low temperature
TGA weight loss (in words) ([1]; phosphate): large amount of weight loss from low temperature

Structure (SMILES): CNC[C@@H]1OCCn2nc3ccccc3c21.Cc1ccc(S(=O)(=O)O)cc1 [Compound 1 Tosylate, (S)-1-(3,4-dihydro-1H-[1,4]oxazino[4,3-b]indazol-1-yl)-N-methylmethanamine tosylate]
DSC Onset [3, 9]: 240.5 °C
DSC Peak [3, 9]: 241.9 °C
DSC ΔHf [3, 9]: 122 J/g
DSC Onset [3, 10]: 240.2 °C
DSC Peak [3, 10]: 241.7 °C
DSC ΔHf [3, 10]: 113 J/g
DSC Onset [3, 11]: 239.7 °C
DSC Peak [3, 11]: 241.4 °C
DSC ΔHf [3, 11]: 123 J/g
weight gain at 95% RH ([2]; about 25° C.): about 1%
hygroscopicity (in words) ([2]; listed as Tosylate, tosylate): less hygroscopicity
hygroscopicity (in words) ([2]; listed as tosylate, tosylate): low hygroscopicity
solubility (in words) [4]: decent solubility in methanol and water

Structure (SMILES): CNC[C@@H]1OCCn2nc3ccccc3c21.O=S(=O)(O)c1ccccc1 [Form BA, (S)-1-(3,4-dihydro-1H-[1,4]oxazino[4,3-b]indazol-1-yl)-N-methylmethanamine benzenesulfonate]
weight gain at 90% RH ([2]; another batch of Form BA): about 1%
weight gain at 90% RH ([2]; one batch of Form BA): about 2%
weight gain at 95% RH ([2]; another batch of Form BA): about 2%
weight gain at 95% RH ([2]; one batch of Form BA): about 8%
hygroscopicity (in words) ([2]; benzenesulfonate): less hygroscopicity; also recorded: good hygroscopicity behavior
transformation to another polymorph on heating [5]: not transformed to any other polymorph

Structure (SMILES): CNC[C@@H]1OCCn2nc3ccccc3c21.O=C(O)/C=C/C(=O)O [Form FA, (S)-1-(3,4-dihydro-1H-[1,4]oxazino[4,3-b]indazol-1-yl)-N-methylmethanamine fumarate]
transformation to another polymorph on heating [5]: not transformed to any other polymorph

Structure (SMILES): CNC[C@@H]1OCCn2nc3ccccc3c21.Cl [Form HB, (S)-1-(3,4-dihydro-1H-[1,4]oxazino[4,3-b]indazol-1-yl)-N-methylmethanamine hydrochloride]
stability of the crystal form [8]: transformed to Form HC or Form HA when it was filtrated and dried; also recorded: Not stable

Structure (SMILES): CNC[C@@H]1OCCn2nc3ccccc3c21.Cl [Form HD, (S)-1-(3,4-dihydro-1H-[1,4]oxazino[4,3-b]indazol-1-yl)-N-methylmethanamine hydrochloride]
stability of the crystal form [8]: Transformed to Form C at room temperature

More lines, main results first:

change of crystal form on storage at high humidity [6]: Form FA was observed
TGA weight loss ([1]; from low temperature): about 3.8%
weight gain at over 75% RH ([2]; over 75% RH): about 5%
Structure (SMILES): CNC[C@@H]1OCCn2nc3ccccc3c21.O=C(O)/C=C/C(=O)O [Form FB, (S)-1-(3,4-dihydro-1H-[1,4]oxazino[4,3-b]indazol-1-yl)-N-methylmethanamine fumarate]

TG weight loss [1]: over 17.1%
weight gain at 95% RH ([2]; about 25° C.): over 100%
hygroscopicity (in words) ([2]; hydrochloride): Highly hygroscopic
Structure (SMILES): CNC[C@@H]1OCCn2nc3ccccc3c21.Cl [Form HA, (S)-1-(3,4-dihydro-1H-[1,4]oxazino[4,3-b]indazol-1-yl)-N-methylmethanamine hydrochloride]
change of crystal form after DVS measurement ([7]; hydrochloride): transformed to Form HC mixed with an unidentified polymorph

change of crystal form after DVS measurement ([7]; hydrochloride): basically stable
change of crystal form on storage at high humidity [6]: transformed to Form HD
TG weight loss [1]: 6.6%
weight gain when humidity increased from 0% RH to 95% RH [2]: 9.3%
weight gain between 60% RH and 70% RH ([2]; between 60% RH and 70% RH): 6.5%
hygroscopicity (in words) ([2]; hydrochloride): hygroscopic
Structure (SMILES): CNC[C@@H]1OCCn2nc3ccccc3c21.Cl [Form HC, (S)-1-(3,4-dihydro-1H-[1,4]oxazino[4,3-b]indazol-1-yl)-N-methylmethanamine hydrochloride]
stability of the crystal form [8]: Transformed to Form D at the humidity level of more than 70% RH

change of crystal form after DVS measurement [7]: no changes of the crystal form
TGA weight loss (in words) [1]: no weight loss until melting
weight gain when humidity increased from 0% RH to 95% RH [2]: ~1%
Structure (SMILES): CNC[C@@H]1OCCn2nc3ccccc3c21.Cc1ccc(S(=O)(=O)O)cc1 [Form TA, (S)-1-(3,4-dihydro-1H-[1,4]oxazino[4,3-b]indazol-1-yl)-N-methylmethanamine tosylate]
hygroscopicity (in words) ([2]; tosylate): less hygroscopicity; also recorded: good hygroscopicity behavior; also recorded: non-hygroscopicity
transformation to another polymorph on heating ([5]; tosylate): not transformed to any other polymorph; also recorded: not transformed to another form until the melting point
